This note sets out measurements from US8193189B2, “Quinoxaline derivatives as tyrosine kinase activity inhibitors” (Novartis AG, priority 2007, dated 2012).

One assay concerns the target T1, GST-JAK3(811-1124) (Homo sapiens, UniProt P52333).
T1 construct: GST-JAK3(811-1124); made in house
The assay can be described thus: EPK JAK-family kinases profiling assay (Caliper mobility shift), JAK3. It is filed as biochemical. The settings on record: ATP 80 μM, 6 nM kinase. An excerpt: (§1) All four kinases of the JAK-family kinases were used as purified recombinant GST-fusion proteins, containing the active kinase domains. GST-JAK1(866-1154), GST-JAK3(811-1124), and GST-TYK2(888-1187) were expressed and purified by affinity chromatography at the EPK biology unit. GST-JAK2(808-1132) was purchased from Invitrogen (Carlsbad, USA, #4288).
(§2) The kinase assays were based on the Caliper mobility shift assay using the LabChip 3000 systems. This technology is similar to capillary electrophoresis and uses charge driven separation of substrate and product in a microfluidic chip.
(§3) All kinase reactions were performed in 384 well microtiter plates in a total reaction volume of 18 μl. The assay plates were prepared with 0.1 μl per well of test compound in the appropriate test concentration, as described under the section “preparation of compound dilutions”. The reactions were started by combining 9 μl of substrate mix (consisting of peptide and ATP) with 9 μl of kinase dilution. The reactions were incubated for 60 minutes at 30° C. and stopped by adding 70 μl of stop buffer (100 mM Hepes, 5% DMSO, 0.1% Coating reagent, 10 mM EDTA, 0.015% Brij 35).
(§4) Fluorescently labeled synthetic peptides were used as substrates in all reactions. […] Specific assay conditions are described in Table 1:
(§5) The terminated reactions were transferred to the Caliper LabChip 3000 reader and the turnover of each reaction was measured by determining the substrate/product ratio.
(§6) Test compounds were dissolved in DMSO (10 mM) and transferred into 1.4 mL flat bottom or V-shaped Matrix tubes carrying a unique 2D matrix chip by individual compound hubs. The numbers of these chips were distinctively linked to the individual compound identification numbers. The stock solutions were stored at −20° C. if not used immediately. For the test procedure the vials were defrosted and identified by a scanner whereby a working sheet was generated that guided the subsequent working steps.
(§7) Compound dilutions were made in 96 well plates. This format enabled the assay of maximally 40 individual test compounds at 8 concentrations (single points) including 4 reference compounds. The dilution protocol included the production of pre-dilution plates, master plates and assay plates:
(§8) Pre-dilution plates: 96 polypropylene well plates were used as pre-dilution plates. A total of 4 pre-dilution plates were prepared including 10 test compounds each on the plate positions A1-A10, one standard compound at A11 and one DMSO control at A12. All dilution steps were done on a HamiltonSTAR robot.
(§9) Master plates: 100 μL of individual compound dilutions including standard compound and controls of the 4 “pre-dilution plates” were transferred into a 384 “master plate” including the following concentrations 1′820, 564, 182, 54.6, 18.2, 5.46, 1.82 and 0.546 μM, respectively in 90% of DMSO.
(§10) Assay plates: Identical assay plates were then prepared by pipetting 100 nL each of compound dilutions of the master plates into 384-well “assay plates”. […] The preparation of the master plates were handled by the Matrix PlateMate Plus robot and replication of assay plates by the HummingBird robot.

A further assay addresses T2, GST-JAK2(808-1132) (Homo sapiens, UniProt O60674).
T2 construct: GST-JAK2(808-1132); purchased Invitrogen (Carlsbad, USA) #4288
The assay can be described thus: EPK JAK-family kinases profiling assay (Caliper mobility shift), JAK2. It is filed as biochemical. The settings on record: ATP 20 μM, 1.8 nM kinase.
Text: as §1, §2, §3, §4, §5, §6, §7, §8, §9, §10

The target in a further assay is T3, GST-JAK1(866-1154) (Homo sapiens, UniProt P23458).
T3 construct: GST-JAK1(866-1154); made in house
T3 sequence (P23458 866-1154): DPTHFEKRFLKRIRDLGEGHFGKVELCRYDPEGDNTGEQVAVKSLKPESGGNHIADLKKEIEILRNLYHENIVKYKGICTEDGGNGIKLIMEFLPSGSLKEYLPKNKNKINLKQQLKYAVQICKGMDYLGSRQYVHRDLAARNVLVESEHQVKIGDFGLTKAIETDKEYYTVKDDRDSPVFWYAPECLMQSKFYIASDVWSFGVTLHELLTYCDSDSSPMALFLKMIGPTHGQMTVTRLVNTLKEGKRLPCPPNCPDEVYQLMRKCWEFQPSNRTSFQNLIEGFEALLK
The assay can be described thus: EPK JAK-family kinases profiling assay (Caliper mobility shift), JAK1. The settings on record: ATP 40 μM, 50 nM kinase. It is filed as biochemical.
Text: as §1, §2, §3, §4, §5, §6, §7, §8, §9, §10

Assay [1] deals with JAK/STAT pathway (JAK1/JAK2-dependent nuclear translocation of STAT1-GFP). The assay can be described thus: Inhibition of the JAK/STAT pathway: IFN-γ stimulated nuclear translocation of STAT1-GFP in HT1080 fibrosarcoma cells. It is filed as cell-based. Conditions: Homo sapiens, HT-1080; HT1080 STAT1-GFP cells, 100 ng/ml IFN-γ 2 hours, compound added 30 min before; read-out: STAT1translo IC50. An excerpt:
The medium-throughput (96-well format), robust and reproducible cellular assay can be routinely used to assess the functional activation of Janus Kinases (JAKs), based on the nuclear translocation of their substrate, Signal Transducer and Activator of Transcription (STAT). Nuclear translocation can be monitored in HT1080 fibrosarcoma cells stably transfected with STAT1 fused to Green Fluorescence Protein (GFP). Stimulation with interferon-γ (IFN-γ) results in JAK1/JAK2-dependent nuclear translocation of STAT1-GFP that can be quantified using the Cellomics Cyto/NucTrans software package. This assay may be used to provide an assessment of the nuclear-cytoplasmic differential (NCD) of GFP-STAT1 using Hoechst dye to define the boundaries of the nucleus.
Compounds can be dissolved in DMSO to a final stock concentration of 10 mM and stored as aliquots at 4° C. Compounds may be pre-diluted in 100% DMSO at 10 mM, 3 mM 1 mM, 0.3 mM, 0.1 mM, 0.03 mM, 0.01 mM and 0.003 mM. Subsequently, compounds may be diluted in medium and added in 50 μl to the cells. The final compound concentrations tested may be 10 μM, 3 μM 1 μM, 0.3 μM, 0.1 μM, 0.03 μM, 0.01 μM and 0.003 μM and the final DMSO concentration can be 0.1%.
The plates may then be washed once in PBS, and 200 μl PBS finally added per well. The plates, being finally covered with a black adhesive, may be either read directly or stored at 4° C. for later imaging. Where appropriate, the compounds may be added 30 min before stimulation with IFN-γ.
The plates can be read on a Cellomics® ArrayscanII automated fluorescence microscope plate reader equipped with a Mercury-Xenon white light illumination source and a Zeiss Axiovert inverted microscope, using the XF100 dichroic/emission filter cube and matching excitation filters, 10× magnification, and a 0.3 numerical aperture objective. Image acquisition and analysis can be performed using a customized protocol based on the ‘NuclearTranslocation’ Bioapplication (for details, see Appendices). For each well, multiple images (fields) can be acquired until a minimum of 1000 cells are counted using two 2 channels: Channel 1 (Hoechst)=focus+nuclear mask, Channel 2 (GFP)=signal quantification in mask areas as outlined below.
Nuclei may be first identified based on the Hoechst staining and a mask generated for each nucleus that then serves as a template to generate a circle (eroded inwards by 1 pixel) and a 3 pixel-wide collar-like ring (off-set outwards by 1 pixel), in which the nuclear and cytoplasmic intensity of GFP, respectively, are quantified in the corresponding channel. High content analysis yields numerous measurements per cell and the GPF intensity differential between the nuclear and the cytoplasmic masks may be chosen as a measure of sub-cellular GFP-STAT1 relocation. The resulting values may be averaged for all cells in the well to return a single measurement plus standard deviation.

Some results are limits rather than exact numbers.

T1 sequence (P52333 811-1124): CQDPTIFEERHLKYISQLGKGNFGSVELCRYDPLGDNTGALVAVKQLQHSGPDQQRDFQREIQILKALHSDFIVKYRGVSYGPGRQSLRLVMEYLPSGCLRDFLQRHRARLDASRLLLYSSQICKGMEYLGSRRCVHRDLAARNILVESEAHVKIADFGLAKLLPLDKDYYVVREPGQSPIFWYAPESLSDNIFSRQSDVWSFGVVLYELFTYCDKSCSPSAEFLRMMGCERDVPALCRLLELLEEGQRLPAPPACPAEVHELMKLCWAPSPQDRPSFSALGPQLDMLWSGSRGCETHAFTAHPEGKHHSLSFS
T2 sequence (O60674 808-1132): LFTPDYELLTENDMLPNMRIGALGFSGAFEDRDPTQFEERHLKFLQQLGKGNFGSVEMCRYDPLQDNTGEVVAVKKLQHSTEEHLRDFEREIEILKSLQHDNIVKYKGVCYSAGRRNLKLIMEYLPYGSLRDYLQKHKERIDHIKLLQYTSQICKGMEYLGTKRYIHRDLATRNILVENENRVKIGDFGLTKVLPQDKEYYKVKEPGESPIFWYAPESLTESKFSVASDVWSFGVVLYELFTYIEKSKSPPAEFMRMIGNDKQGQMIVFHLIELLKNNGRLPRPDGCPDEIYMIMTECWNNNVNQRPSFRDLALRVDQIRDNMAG

In the case of `CCN1CCN(C(=O)c2ccc(-c3cnc4cccc(-c5ccc(C(C)(C)N6CCS(=O)(=O)CC6)c(C)c5)c4n3)cc2C)CC1` [Example 81, [4-(8-{4-[1-(1,1-Dioxido-thiomorpholin-4-yl)-1-methyl-ethyl]-3-methyl-phenyl}-quinoxalin-2-yl)-2-methyl-phenyl]-(4-ethyl-piperazin-1-yl)-methanone], the IC50 is 780 nM on GST-JAK3(811-1124), 16.5 nM at GST-JAK2(808-1132), 1150 nM at GST-JAK1(866-1154) and 389 nM in assay [1].
Taken in the same sequence, the figures for `Cc1cc(-c2cnc3cccc(-c4ccc(CC(=O)N5CCOCC5)cc4)c3n2)ccc1C(=O)N1CCN(C)CC1` [Example 41, 2-(4-{3-[3-Methyl-4-(4-methyl-piperazine-1-carbonyl)-phenyl]-quinoxalin-5-yl}-phenyl)-1-morpholin-4-yl-ethanone] were 640 nM, 6.3 nM, 130 nM and 346 nM.
For `Cc1cc(-c2cnc3cccc(-c4ccc(CN5CCS(=O)(=O)CC5)c(Cl)c4)c3n2)ccc1C(=O)N1CCCC1` [Example 67, (4-{8-[3-Chloro-4-(1,1-dioxido-thiomorpholin-4-ylmethyl)-phenyl]-quinoxalin-2-yl}-2-methyl-phenyl)-pyrrolidin-1-yl-methanone] the same measures were 405 nM, below 3 nM, 96.5 nM and 475 nM.
Taken in the same sequence, the figures for `COc1cc(-c2cnc3cccc(-c4ccc(CS(C)(=O)=O)cc4)c3n2)ccc1OCCN1CCOCC1` [Example 37, 8-(4-Methanesulfonylmethyl-phenyl)-2-[3-methoxy-4-(2-morpholin-4-yl-ethoxy)-phenyl]-quinoxaline] were 780 nM, 14 nM, 68 nM and 3080 nM.
For `Cc1cc(-c2cnc3cccc(-c4ccc(CN5CCOCC5)c(F)c4)c3n2)ccc1C(=O)N1CCOCC1` [Example 58, {4-[8-(3-Fluoro-4-morpholin-4-ylmethyl-phenyl)-quinoxalin-2-yl]-2-methyl-phenyl}-morpholin-4-yl-methanone], the IC50 amounted to 320 nM at GST-JAK3(811-1124), 11 nM on GST-JAK2(808-1132), 90 nM on GST-JAK1(866-1154) and 220 nM in assay [1].
For `CCOc1ccc(-c2cnc3cccc(-c4ccc(CN5CCS(=O)(=O)CC5)c(C)c4)c3n2)cc1OCC` [Example 32, 2-(3,4-Diethoxy-phenyl)-8-[4-(1,1-dioxido-thiomorpholin-4-ylmethyl)-3-methyl-phenyl]-quinoxaline] the same measures were 2700 nM, 84 nM, 570 nM and 7790 nM.
Taken in the same sequence, the figures for `Cc1cc(-c2cnc3cccc(-c4ccc(CN5CCS(=O)(=O)CC5)c(Cl)c4)c3n2)ccc1C(=O)N1CCOCC1` [Example 61, (4-{8-[3-Chloro-4-(1,1-dioxido-thiomorpholin-4-ylmethyl)-phenyl]-quinoxalin-2-yl}-2-methyl-phenyl)-morpholin-4-yl-methanone] were 1400 nM, 15 nM, 165 nM and 235 nM.
Consider `Cc1cc(-c2cnc3cccc(-c4ccc(CN5CCS(=O)(=O)CC5)c(F)c4)c3n2)ccc1C(=O)N1CCOCC1` [Example 62, (4-{8-[4-(1,1-Dioxido-thiomorpholin-4-ylmethyl)-3-fluoro-phenyl]-quinoxalin-2-yl}-2-methyl-phenyl)-morpholin-4-yl-methanone], for which the IC50 at GST-JAK3(811-1124) is 330 nM; on GST-JAK2(808-1132), 5.7 nM; on GST-JAK1(866-1154), 44.5 nM; in assay [1] it was 82 nM.
With `CCN1CCN(C(=O)c2ccc(-c3cnc4cccc(-c5ccc(C(C)(C)N6CCOCC6)c(C)c5)c4n3)cc2C)CC1` [Example 80, (4-Ethyl-piperazin-1-yl)-(2-methyl-4-{8-[3-methyl-4-(1-methyl-1-morpholin-4-yl-ethyl)-phenyl]-quinoxalin-2-yl}-phenyl)-methanone], the IC50 on GST-JAK3(811-1124) is 4550 nM; on GST-JAK2(808-1132) it was 75 nM; on GST-JAK1(866-1154) it was 3800 nM; in assay [1] it was 1550 nM.
For `Cc1cc(-c2cnc3cccc(-c4ccc(CN5CCOCC5)c(C(F)(F)F)c4)c3n2)ccc1C(=O)N(C)C` [Example 55, 2,N,N-Trimethyl-4-[8-(4-morpholin-4-ylmethyl-3-trifluoromethyl-phenyl)-quinoxalin-2-yl]-benzamide] the same measures were 4200 nM, 90 nM, 1700 nM and 3140 nM.
Taken in the same sequence, the figures for `Cc1cc(-c2cnc3cccc(-c4ccc(CN5CCS(=O)(=O)CC5)cc4)c3n2)ccc1C(=O)N1CCN(C)CC1` [Example 40, (4-{8-[4-(1,1-Dioxido-thiomorpholin-4-ylmethyl)-phenyl]-quinoxalin-2-yl}-2-methyl-phenyl)-(4-methyl-piperazin-1-yl)-methanone] were 627 nM, 7.3 nM, 78.4 nM and 160 nM.
For `Cc1cc(-c2cccc3ncc(-c4ccc(C(=O)N5CCOCC5)c(C)c4)nc23)ccc1CN1CCS(=O)(=O)CC1` [Example 57, (4-{8-[4-(1,1-Dioxido-thiomorpholin-4-ylmethyl)-3-methyl-phenyl]-quinoxalin-2-yl}-2-methyl-phenyl)-morpholin-4-yl-methanone] the same measures were 170 nM, below 3 nM, 80 nM and 163 nM.

As a reminder, the IC50 is the midpoint of a concentration-inhibition curve.
